Experimental data as given in ChEMBL document CHEMBL3507680, “University of Dundee, Gates Library screen for HepG2 cell viability”.

assay: Human HepG2 cell viability assay in 384 well format; assay type: toxicity, cell-based; set-up: dose 125 nL, time 70.5 hour; concentration not given beside the values; settings: HepG2 cells, read-out: Inhibition

In order of falling cytotoxicity at 70.5 h:
1. CCOc1ccc(CC(CNC(=O)c2ccoc2)C(N)=O)cc1 (centres undefined)  49.1%
2. CC(=O)N1C[C@H]2CCCN(S(=O)(=O)c3ccc(Cl)s3)[C@H]2C1  44.3%
3. CCc1nccn1-c1cncc(C2CCCN2Cc2ccc(F)cc2)n1 (centres undefined)  36.1%
4. Cc1ccc(NC(=O)Nc2cnc(N3CCN(C)CC3)nc2)cc1  27.1%
5. Cc1cc2c(cc1Cl)C=CC1(CCN(CC(=O)N3CCOCC3)CC1)O2  25.7%
6. CN(C)Cc1nnc(C2CCCN(c3ncccc3F)C2)n1C (centres undefined)  24.4%
7. COc1cc(C(=O)NC(C)C)nc2c(C)cc(F)cc12  23.4%
8. CCn1c(Cn2cncn2)nnc1C1CCN(CCN)CC1  17.7%
9. CCn1ccnc1CN1CCCN(C(=O)Cc2ccc(F)cc2)CC1  17.5%
10. CC(=O)N1CCCN(C(C)c2ccc(Br)cc2)CC1 (centres undefined)  17.2%
11. Cc1cc(S(=O)(=O)Nc2cccc(OC(F)F)c2)sc1C(=O)O  16.4%
12. CCc1nc(C)c(C(=O)N[C@@H]2c3ccccc3C[C@@H]2O)o1  16%
13. COc1ccc(CN2CC(O)CN(C(=O)OCC(C)C)CC2=O)cc1 (centres undefined)  14.8%
14. c1ccc(CN2CCOC3CNCC[C@H]32)cc1 (some centres undefined)  13.7%
15. CCc1ncc(CN(C)C2CCN(C(C)C)CC2)cn1  13.4%
16. CN(C)CC(=O)N1Cc2nc(C(=O)NCc3ccccc3)oc2C1  13%
17. OC(CN1CCCc2cc(OC(F)F)ccc21)Cn1cccn1 (centres undefined)  12.9%
18. CNc1cncc(C2CCCN2C(=O)c2ccc3c(c2)CCC3)n1 (centres undefined)  9.47%
19. Cc1ccc(C)c(OCC(O)Cn2ncc3cnn(C)c(=O)c32)c1 (centres undefined)  6.69%
20. COC(=O)CCSc1nncn1-c1ccc(OC)nc1  4.09%
21. COCCCOC1CN(C(=O)c2[nH]nc3c2CCCC3)C1  4%
22. COc1ccc(CC(=O)NCCNS(=O)(=O)c2ccc(C)cc2)cc1  2.16%
23. O=C(c1cc(=O)c(OCc2ccccc2F)co1)N1CCCC1  1.91%
24. c1cc(CN2CCOC[C@H]2c2nc(-c3ccncc3)c[nH]2)ccn1  1.86%
25. O=C(NCC(Cc1cccc(F)c1)N1CCCC1=O)c1ccc(=O)[nH]n1 (centres undefined)  1.13%
26. COC1(CNC(=O)NCCOc2ccccc2)CCSC1 (centres undefined)  1.02%
27. C[C@@H](N)C(=O)N1CC2(CCNCC2)c2cc(Cl)ccc21  0.763%
28. CN(C)C(=O)COC[C@]12COC[C@H]1CN(Cc1ccco1)C2  0.692%
29. CCOC(=O)c1n[nH]cc1CN1CCOC(Cc2ccccc2)C1 (centres undefined)  0.539%
30. O=C(c1csc(-c2ccco2)n1)N1CCOc2ncccc21  0.101%
31. CCN(Cc1ccc2c(c1)OCO2)C(=O)Cn1cccnc1=O  -0.305%
32. Cc1nc(N2CCCCC2)ncc1-c1cc(O)nc(N2CCCCC2)n1  -0.353%
33. NC(=O)COc1ccc(CNCc2ccc(Cl)c(F)c2)cc1  -0.573%
34. Cc1nc(NC(=O)NC2CC(=O)N(C(C)C)C2)nn1C(C)C (centres undefined)  -0.942%
35. COc1ccnc(N2CCN(C(=O)Cc3ccc(C#N)cc3)CC2)n1  -0.995%
36. CCCc1nn(C2CCN(C(C)C)C2=O)c(=O)o1 (centres undefined)  -1.04%
37. O=C1CC2(CCN(c3nncs3)C2)CN1c1ccccc1 (centres undefined)  -1.13%
38. Nc1nccc(C2CCCN2CCc2ccccc2)n1 (centres undefined)  -1.57%
39. O=C1CC(c2ccncc2)C2(CCN(C(=O)NC3CC3)CC2)N1 (centres undefined)  -1.57%
40. Cc1noc(CN(CCO)Cc2cc(Br)ccc2F)n1  -1.67%
41. Cc1ncncc1C(=O)N1CCOC(C(=O)NC2CCCC2)C1 (centres undefined)  -1.76%
42. COC(=O)c1cccc(NS(=O)(=O)c2cnc(NC(C)=O)s2)c1  -1.8%
43. COc1ccc(NC(=O)C2OC(c3cccs3)=NN2C(C)=O)cc1 (centres undefined)  -1.98%
44. Cc1nc(C)n(CC2CCCN(CCc3ccncc3)C2)n1 (centres undefined)  -2.11%
45. CC(C)(C(=O)NCc1ccc(C#N)cc1)n1cc(Br)cn1  -2.27%
46. CC1(c2ccccc2)CCC(=O)N(CCN2CCOC2=O)C1 (centres undefined)  -2.39%
47. O=c1[nH]c(-c2ccncc2)ncc1-c1ccnc(N2CCOCC2)n1  -2.39%
48. Cc1ccccc1C(O)CNC(=O)Cc1ccc(F)cc1 (centres undefined)  -2.44%
49. CCCc1cncnc1N1CCC(NCc2ccc(O)cc2)CC1  -2.53%
50. CCN(C(=O)COc1nc(C(C)(C)C)no1)C1CC1  -2.91%
51. Cc1c(Cl)cccc1NC(=O)N1CCN(Cc2ccccn2)CC1  -3.15%
52. CS(=O)(=O)CCOCCNc1cncc(Br)c1  -3.24%
53. CN(C)C(=O)CCS(=O)(=O)Cc1cc(Cl)c2c(c1)OCO2  -3.5%
54. COCc1nnc(C(=O)N(C)Cc2cnc3ccccn23)o1  -3.55%
55. CC(C)COCCCNC(=O)NC(C)c1ccc(-n2cncn2)cc1 (centres undefined)  -3.59%
56. O=c1cc2c(nn1CN1CCOCC1)CCC2  -3.75%
57. CCn1cc(-c2nn3c(C(F)(F)F)nnc3s2)c(C)n1  -3.8%
58. CN(C)C(=O)CN1CC[C@H]2CN(S(C)(=O)=O)C[C@@H]2C1=O  -3.84%
59. COCCn1cc(C(=O)N2CCCC2c2ccncc2)c2ccccc21 (centres undefined)  -4.2%
60. CC(C)c1ccc(OCn2ccc(C(=O)N3CCCC3)n2)cc1  -4.33%
61. CC(C)CN(C(=O)COc1ccc(C(N)=O)cc1)C1CCN(C)CC1  -4.39%
62. O=C(O)c1cccc(CN2CCCC(c3ccn[nH]3)C2)c1 (centres undefined)  -4.41%
63. CN(C)S(=O)(=O)N1C[C@@H]2CN(Cc3ccoc3)CCO[C@@H]2C1  -4.48%
64. CC(=O)c1ccc(CNC(=O)c2cc(C#N)cn2C)nc1C  -4.66%
65. CCCN1CCC(CC(=O)NCCc2nc(C)cc(C)n2)CC1  -4.92%
66. CN(C)C(=O)N1C[C@@H]2CC[C@H](C1)N(C(=O)c1cccc(N(C)C)c1)C2  -4.96%
67. CN(CCNC(=O)N1CCN(Cc2ccon2)CC1)c1ccccc1  -5.16%
68. O=C(CC1CC1)NCc1cc(=O)n2c(n1)CN(Cc1ccoc1)CCC2  -5.33%
69. O=C(NCc1csc(-c2cnccn2)n1)c1cnn2c1CCCC2  -5.37%
70. O=C(NCC(c1cccs1)N1CCOCC1)c1ccc(F)cc1Cl (centres undefined)  -5.9%
71. O=C1NCCN1C1CCN(CCOc2ccccc2F)CC1  -5.97%
72. Cc1cnc(C(=O)N2CCN(C(=O)C(C)C)[C@@H]3CS(=O)(=O)C[C@@H]32)cn1  -6.02%
73. Cc1noc(C2CCCN(C(=O)c3cc(Cl)c(Cl)n3C)C2)n1 (centres undefined)  -6.05%
74. Cc1nc(CCNC(=O)Nc2cc(C(F)(F)F)c[nH]c2=O)cs1  -6.32%
75. O=C(C1CCOC1)N1CCN(CC2CC2)c2ccccc21 (centres undefined)  -6.39%
76. CCCc1cc(N2CCC(NCC3(O)CCN(C)CC3)CC2)nc(C)n1  -6.43%
77. Cc1nc(CN2CCCC(NCc3ccc4ccccc4c3)C2)no1 (centres undefined)  -6.48%
78. CC(NC(=O)N1CCN(c2nccs2)CC1)c1nncn1C (centres undefined)  -7.23%
79. Cc1ccsc1C1CC(=O)Nc2c1cnn2C(C)C (centres undefined)  -7.26%
80. Cn1nc(C(=O)N2CCCC(n3cncn3)C2)ccc1=O (centres undefined)  -7.35%
81. CCOc1cc(C(=O)N2CCCC(c3cc(C(N)=O)[nH]n3)C2)ccn1 (centres undefined)  -7.42%
82. CC(=O)Nc1nc(CN2CCn3c(nnc3C3CC3)C2)cs1  -7.7%
83. Cn1c(Cn2cccn2)nnc1C1CCCN(c2ccncc2)C1 (centres undefined)  -8.1%
84. Cc1ccc(S(=O)(=O)N2CCC(Oc3cccnn3)CC2)c(C)c1  -8.17%
85. CC(C)c1ncc(CN2CCCC(CO)C2)cn1 (centres undefined)  -8.2%
86. Cc1ccc(C)c2c(O)cc(CN3CCNC(=O)C3C)nc12 (centres undefined)  -8.28%
87. CC(C)CN1CCN(C)C(CCO)C1 (centres undefined)  -8.39%
88. COc1ccccc1CC(=O)NC(CC(=O)O)c1ccc(F)cc1 (centres undefined)  -8.41%
89. O=C(NCc1ccco1)[C@H]1C[C@H]2OCC[C@H]2N(C(=O)c2ccco2)C1  -8.55%
90. Cc1nc(C(NC(=O)C2CCCC2)c2ccccc2F)no1 (centres undefined)  -9.04%
91. Cn1cc(C(=O)CC2CCCN2C(=O)c2ccncc2F)cn1 (centres undefined)  -9.05%
92. COC(=O)CNC(=O)c1cn(-c2ccccn2)c(=O)c2ccccc12  -9.1%
93. NC(=O)c1ccccc1-n1cc(-c2cccc(C(=O)O)c2)cn1  -9.16%
94. CCOc1cc(C)nc(N2CCN(C(=O)CN(C)C3CC3)CC2)n1  -9.22%
95. CC(C)(C)C(=O)N1CCC(n2cc(C3(O)CCCC3)nn2)CC1  -9.39%
96. Cc1cc(C)n(CCCN(C)Cc2cn[nH]c2-c2ccc(F)cc2)n1  -9.49%
97. Cc1ccccc1C(C(=O)N(Cc1cnn(C)c1)CC(C)C)N(C)C (centres undefined)  -9.52%
98. O=C(O)c1cc(S(=O)(=O)N2CCOc3ccccc32)cc(Cl)c1Cl  -9.63%
99. COCCO[C@@H]1C[C@H]2CN(C(=O)c3ccc(C)nc3)CCN2C1  -9.86%
100. COc1cccc(-n2nnc(C(=O)N3CCCC(C)C3)c2C)c1 (centres undefined)  -10.2%
101. Cn1cccc1C(=O)N1C[C@H](OCC2CCOCC2)[C@H]2COC[C@H]21  -10.8%
102. N#Cc1cccc(OCCN2CCC(C(=O)N3CCOCC3)CC2)c1  -11.2%
103. Cc1nn(C)c(C)c1S(=O)(=O)NCC1(C(N)=O)CCOCC1  -11.5%
104. Cc1cccc(CN2CCCC3(CCN(CC(=O)N(C)C)C3=O)C2)n1 (centres undefined)  -13.1%
105. CCOC(=O)CNC(=O)NCc1cccn1Cc1ccccc1  -13.4%
106. COc1ncccc1CNC(=O)NC(C)Cn1cccn1 (centres undefined)  -14.1%
107. COc1cc(-c2nc(C3CC3)nn2-c2ccnc(C)c2)nc(OC)n1  -14.3%
108. CCn1nc2c(cc1=O)CN(Cc1nc(-c3cccnc3)no1)CC2  -14.4%
109. CSc1ccc(OCCN2CCNC(=O)C2C)cc1 (centres undefined)  -15.5%
110. Cc1cc(CC(=O)NC2CCCN(c3ccccc3Cl)C2=O)n[nH]1 (centres undefined)  -19%
111. COC(=O)c1ccc(OC)c(Cn2cc(N)cn2)c1  -19.2%
112. CS(=O)(=O)N1CCC(C(=O)NCCNc2ncccn2)CC1  -19.2%
113. Cc1cc(C2CCCN(C(=O)CCc3cscn3)C2)n[nH]1 (centres undefined)  -19.6%
114. CC(O)CN1CCN(C(=O)c2ccc(Br)o2)CC1 (centres undefined)  -19.8%
